From patent US20250332141A1, “A PHARMACEUTICAL COMPOSITION COMPRISING AN INHIBITOR OF GLUTAMINE SYNTHETASE ENZYME TO COMBAT ARTEMISININ RESISTANCE IN MALARIA” (Institute of Life Sciences, priority 2022, published 2025) come the findings set out here.

The subject of series [1] is ART-resistant PfCam3.I^R539T strain. Description: Ring-stage survival assay (RSA) with ART-resistant strain. The format is cell-based, Plasmodium falciparum. Here is the method: PfCam3.I^R539T strain was maintained under standard conditions. When the parasitemia reached around 2% with predominant ring stages, the cultures were subjected to two rounds of tight synchronization within a span of 3 h in the previous cycle, followed by one additional synchronization in the subsequent cycle when they are in early rings. […] The medium change was carried out at 48 and 72 h, and after 96 h, the culture parasitemia was examined by Giemsa-stained smears and flow cytometry. For growth assessment by ^3H-hypoxanthine uptake, the label was added at 72 h and the cells were harvested at 96 h. The experiments were carried out independently in RPMI^-gln and RPMI^Pgln medium.

The subject of another series is Pf protein synthesis. Description: In vitro metabolic protein labelling with 35S-Methionine and Cysteine. The format is cell-based. The following applies: Plasmodium falciparum, 12 h treatment; for inhibition at 50 µM / inhibition at 250 µM: RPMI^-gln medium; for inhibition at 1000 µM: 1 mM, RPMI^Pgln medium. Here is the method: After 9 h of radiolabelling, parasites were isolated by saponin lysis, resuspended in 50 mM Tris pH 8.0 containing 100 mM NaCl, 2% glycerol and 0.1% Triton X-100, and lysed by sonication. The lysates were resolved on 10% SDS-PAGE gel and phosphorimager scanning was carried out to examine the radiolabelling of proteins using Amersham Typhoon 5 Biomolecular Imager. In parallel, 10 μl of the lysates were spotted on Whatman filter paper grade I, dried and washed subsequently with hot and cold 10% (w/v) trichloroacetic acid to remove free amino acids and charged-tRNAs, followed by diethyl ether to remove lipids. The filter papers were then placed in Ultima Gold XR scintillation cocktail and the radioactive counts were measured using MicroBeta^2 Microplate Counters. All these experiments were performed with identical parasitemia and hematocrit between the untreated and treated groups by equally splitting the infected cultures.

The test system of a further series is Pf parasites. The conditions noted are these: RPMI^-gln medium; 50 and 250 μM MSO, 12 h. The protocol: Parasite pellets were then extracted with 10 volumes of 50% methanol in water (v/v), followed by lyophilisation and solubilizing the lyophilized extracts with 50 μl of water. […] For LC-MS/MS, the parasite extracts were derivatized with 6-aminoquinolyl-N-hydroxysuccinimidyl carbamate (AQC), cleaned up with SPE and dried under vacuum, followed by reconstitution with 50 μl of 0.5% acetonitrile containing 0.1% formic acid. 10 μl of the sample was used for LC-MS/MS analysis carried out in Acquity C18 column (1.8 μm, 2.1 mm×100 mm) using Dionnex Ultimate3000 UHPLC system coupled with Q Exactive mass spectrometer (Thermo Fisher Scientific). Mobile phase consisted of Solvent A: 10 mM ammonium acetate containing 0.1% formic acid and solvent B: acetonitrile containing 0.1% formic acid. Mass spectrometry was performed under spray voltage of 4000/2500V with vaporizer temperature of 250° C., sheath gas and auxillary gas flow rate of 30 and 10 Arb, respectively. The acquisition was performed in Parallel Reaction Monitoring mode at 35000 resolution with a normalized collision energy of 25 eV. The calibration curves were prepared for the individual amino acids and the samples were spiked with internal standards containing deuterated amino acids.

The test system of series [2] is eIF2α phosphorylation in Pf3D7 rings. The conditions noted are these: 250 μM for 6 h, RPMI^-gln medium. The protocol: Pf3D7 cultures were subjected to two rounds of tight synchronization within a span of 3 h in the previous cycle, followed by one additional synchronization in the subsequent cycle immediately after RBC invasion.
For series [3], the system named is Pf asexual stages (Pf3D7 cultures). Description: MSO and PPT inhibition of in vitro growth of Pf cultures. The format is cell-based, Plasmodium falciparum. The following applies: for IC50: Plasmodium falciparum, read-out: IC50 for inhibiting Pf growth. The protocol:
The parasites were subcultured with fresh RBCs when the culture parasitemia reached around 2-5%. […] The isolated parasites were washed thoroughly with ice cold PBS for four times to remove the carry-over of proteins from RBC lysates. ART-resistant PfCam3.I^R539T strain was also maintained in a similar fashion. Giemsa-stained smears were routinely prepared to examine the parasite growth and parasitemia. Parasite growth assessment for experiments was carried out by Giemsa-stained smears, flow cytometry and ^3H-hypoxanthine uptake. […] The radioactive counts were measured using MicroBeta^2 Microplate Counters (PerkinElmer).

In another series the test system is Pf clinical isolates. Description: Inhibition studies with Pf clinical samples (3H-hypoxanthine uptake). The format is cell-based, Plasmodium falciparum. The conditions noted are these: in vitro cultures without or with glutamine; n=7 clinical isolates.
In series [4] the target is T1, rPfGS (Plasmodium falciparum glutamine synthetase) (Plasmodium falciparum, UniProt C0H551).
T1 sequence (C0H551 1-543): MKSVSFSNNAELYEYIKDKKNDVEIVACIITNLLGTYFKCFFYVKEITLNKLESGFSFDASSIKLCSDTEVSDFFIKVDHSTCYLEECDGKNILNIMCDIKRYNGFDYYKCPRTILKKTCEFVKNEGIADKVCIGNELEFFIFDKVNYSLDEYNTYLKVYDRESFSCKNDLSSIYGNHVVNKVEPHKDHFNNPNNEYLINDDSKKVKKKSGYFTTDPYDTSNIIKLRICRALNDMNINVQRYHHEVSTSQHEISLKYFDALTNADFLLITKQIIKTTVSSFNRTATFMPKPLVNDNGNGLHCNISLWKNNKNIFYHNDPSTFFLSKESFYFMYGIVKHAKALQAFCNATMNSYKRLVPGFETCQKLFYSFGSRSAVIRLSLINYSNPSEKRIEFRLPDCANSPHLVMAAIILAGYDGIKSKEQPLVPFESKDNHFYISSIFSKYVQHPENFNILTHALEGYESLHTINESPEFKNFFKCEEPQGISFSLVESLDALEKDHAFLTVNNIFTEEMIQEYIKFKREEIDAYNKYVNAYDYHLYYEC
Description: Recombinant PfGS enzyme assay (HPLC glutamine formation / Pi release) and inhibition. The format is biochemical.

Substrate in series [5]: N
The description is as above. The format is biochemical, Plasmodium falciparum. The conditions noted are these: other: Lineweaver-Burk plots; mean±SD, at least three different protein preparations.

Substrate in series [6]: Nc1ncnc2c1ncn2[C@@H]1O[C@H](COP(=O)(O)OP(=O)(O)OP(=O)(O)O)[C@@H](O)[C@H]1O
The series is described as above. The series is classed as biochemical, Plasmodium falciparum. The conditions noted are these: other: Lineweaver-Burk plots; mean±SD, at least three different protein preparations.

Substrate in series [7]: N[C@@H](CCC(=O)O)C(=O)O
Described as above. The format is biochemical, Plasmodium falciparum. The conditions noted are these: other: Lineweaver-Burk plots; mean±SD, at least three different protein preparations.

Where two headings read alike, the source gives them in different places.

`C[C@@H]1CC[C@H]2[C@@H](C)C(=O)O[C@@H]3O[C@@]4(C)CC[C@@H]1[C@]32OO4` [ART, artemisinin]: in series [1] (700 nM exposure for 6 h, PfCam3.I^R539T cultures, after 72 h), the “viable parasites after exposure in RSA” value is “resulted in viable parasites”.
One may read the inhibition as the drop in the measured response relative to a control, in per cent. Low readings indicate a weak effect, high ones a strong effect. The IC50 is the midpoint of a concentration-inhibition curve. In the series on Pf protein synthesis, `CS(=N)(=O)CC[C@H](N)C(=O)O` (stereo partly drawn) [MSO, L-methionine sulfoximine] had an inhibition at 50 µM of 40 to 50%, an inhibition at 250 µM of around 80% and an inhibition at 1000 µM of around 50%. In addition, in the series with Pf parasites, the “free glutamine levels in treated Pf parasites with respect to untreated parasites” value is on record as “did not show a significant decrease” and the “reduction of free asparagine levels with respect to untreated control” value is reported as 1.5-2.0 fold. Also, in [2], the “phosphorylation of eIF2α in Pf” value was “prominent phosphorylation”. In addition, the IC50 in series [3] was around 30 µM. In addition, the “growth of Pf clinical samples” value with Pf clinical isolates was “could inhibit the growth of Pf clinical samples to the extent that was observed for Pf3D7 strain”. Also, the “inhibition with respect to the untreated control” value in series [1] (MSO alone for 6 h, PfCam3.I^R539T rings) is on record as 10-20%.
In general, Ki refers to a measure of affinity in units of concentration, obtained from inhibition or displacement. In the series on Pf protein synthesis, `CP(=O)(O)CCC(N)C(=O)O` (centres unmarked) [PPT, Phosphinothricin] came in with an inhibition at 50 µM of 40 to 50%, an inhibition at 250 µM of around 80% and an inhibition at 1000 µM of around 50%. In addition, in series [3] (RPMI medium lacking glutamine (RPMI^-gln)), the IC50 is around 30 µM. Further, in [3] (RPMI medium containing physiological levels (0.5 mM) of glutamine (RPMI^Pgln)), the “IC50 in RPMI^Pgln relative to IC50 in RPMI^-gln” value is around 10 times higher. Besides, the Ki in series [4] is 2.31 ± 1.1 µM. The “growth of Pf clinical samples” value in the series on Pf clinical isolates is listed as “could inhibit the growth of Pf clinical samples to the extent that was observed for Pf3D7 strain”.

B1: rPfGS (Plasmodium falciparum glutamine synthetase) (Plasmodium falciparum 3D7) (protein)
chain: MKSVSFSNNAELYEYIKDKKNDVEIVACIITNLLGTYFKCFFYVKEITLNKLESGFSFDASSIKLCSDTEVSDFFIKVDHSTCYLEECDGKNILNIMCDIKRYNGFDYYKCPRTILKKTCEFVKNEGIADKVCIGNELEFFIFDKVNYSLDEYNTYLKVYDRESFSCKNDLSSIYGNHVVNKVEPHKDHFNNPNNEYLINDDSKKVKKKSGYFTTDPYDTSNIIKLRICRALNDMNINVQRYHHEVSTSQHEISLKYFDALTNADFLLITKQIIKTTVSSFNRTATFMPKPLVNDNGNGLHCNISLWKNNKNIFYHNDPSTFFLSKESFYFMYGIVKHAKALQAFCNATMNSYKRLVPGFETCQKLFYSFGSRSAVIRLSLINYSNPSEKRIEFRLPDCANSPHLVMAAIILAGYDGIKSKEQPLVPFESKDNHFYISSIFSKYVQHPENFNILTHALEGYESLHTINESPEFKNFFKCEEPQGISFSLVESLDALEKDHAFLTVNNIFTEEMIQEYIKFKREEIDAYNKYVNAYDYHLYYEC
One may read the Km as the substrate concentration at which the rate is half of its maximum. Consider B1, for which the Km in series [5] amounted to 530 ± 180 µM; in series [6], 750 ± 140 µM; in [7], 730 ± 210 µM.
